Legend:
P. gingivalis [1] = assay: zone of inhibition on blood agar, drop technique and line method (Example 2); format: cell-based, Porphyromonas gingivalis; conditions: control, 3 ul of 20%; after 3 days of incubation
Description: Experimental Design: Blood agar (for the 3 anaerobic bacteria, 1 facultative bacterium and 1 aerobic yeast; Fisher Scientific) plates were individually swabbed with fresh 24 h broth cultures of C. albicans, P. gingivalis, P. intermedia, F. nucleatum and S. mutans to provide a confluent lawn of microbial growth. Five minutes after swabbing the plates (to allow the inoculum to absorb into the agar), the test and control specimens ([…]) onto designated places on the plates and allowed to adsorb (or adhere, in the case of the undiluted sera) into the agar. Assays were conducted in duplicate and undiluted and 1:5 and 1:10 dilutions of the solutions and sterile saline (negative control) were used. The plates were incubated agar-side up at 37° C. in a GasPak anaerobic jar or in 5% CO2 for 72 h. Plates were examined at 72 h for zones of inhibition of growth of the microbes. The diameter of each zone was measured in mm. The zones of inhibition of each dilution sample were compared to the zones of control saline without antimicrobial components. If the zones of the solutions were the same size (or smaller) than the inhibition zones from the control saline than there was judged no inhibition of antimicrobial activity by the antimicrobial solutions. […]

C. albicans = assay: zone of inhibition on blood agar, drop technique and line method (Example 3); format: cell-based, Candida albicans; conditions: control spot, dilution not given; after 5 days of incubation
Description: (§1) Experimental Design: Blood agar (for the 3 anaerobic bacteria, 3 facultative bacteria and 1 aerobic yeast; Fisher Scientific) plates were individually swabbed with fresh 24 h broth cultures of C. rectus, Aggregatibacter actinomycetemcomitans (A.a), C. albicans, P. gingivalis, P. intermedia, F. nucleatum and S. mutans to provide a confluent lawn of microbial growth. Five minutes after swabbing the plates (to allow the inoculum to absorb into the agar), the test and control specimens (see below) were aseptically pipetted (5 ul) onto designated places on the plates and allowed to adsorb (or adhere, in the case of the undiluted sera) into the agar. Assays were conducted in duplicate and undiluted and 1:5 and 1:10 dilutions of the solutions and sterile saline (negative control) and chlorhexidine (CHX) were used. […] The diameter of each zone was measured in mm. The zones of inhibition of each dilution sample were compared to the zones of control saline without antimicrobial components. If the zones of the solutions were the same size (or smaller) than the inhibition zones from the control saline than there was judged no inhibition of antimicrobial activity by the antimicrobial solutions. Conversely, if the zones of the solutions were larger than the inhibition zones from the control saline than there was judged significant antimicrobial activity by the solutions. […]

S. mutans [2] = assay: zone of inhibition on blood agar, drop technique and line method (Example 2); format: cell-based, Streptococcus mutans; conditions: control, 3 ul of 20%; after 3 days of incubation
Description: (§2) Experimental Design: Blood agar (for the 3 anaerobic bacteria, 1 facultative bacterium and 1 aerobic yeast; Fisher Scientific) plates were individually swabbed with fresh 24 h broth cultures of C. albicans, P. gingivalis, P. intermedia, F. nucleatum and S. mutans to provide a confluent lawn of microbial growth. […] Assays were conducted in duplicate and undiluted and 1:5 and 1:10 dilutions of the solutions and sterile saline (negative control) were used. The plates were incubated agar-side up at 37° C. in a GasPak anaerobic jar or in 5% CO2 for 72 h. Plates were examined at 72 h for zones of inhibition of growth of the microbes. The diameter of each zone was measured in mm. The zones of inhibition of each dilution sample were compared to the zones of control saline without antimicrobial components. If the zones of the solutions were the same size (or smaller) than the inhibition zones from the control saline than there was judged no inhibition of antimicrobial activity by the antimicrobial solutions. Conversely, if the zones of the solutions were larger than the inhibition zones from the control saline than there was judged significant antimicrobial activity by the solutions. It was anticipated that there will be significant inhibition of microbial growth by at least some of the antimicrobial wheat grass products. […]

P. gingivalis [3] = assay: zone of inhibition on blood agar, drop technique and line method (Example 3); format: cell-based, Porphyromonas gingivalis; conditions: control spot, dilution not given; after 5 days of incubation
Description: as §1

[4] = tested on: C. rectus, Aggregatibacter actinomycetemcomitans (A.a), C. albicans, P. gingivalis, P. intermedia, F. nucleatum and S. mutans; assay: in vitro antimicrobial activity, summary over the seven microbes (Example 3); format: cell-based; conditions: overall summary of Example 3
Description: Experimental Design: Blood agar (for the 3 anaerobic bacteria, 3 facultative bacteria and 1 aerobic yeast; Fisher Scientific) plates were individually swabbed with fresh 24 h broth cultures of C. rectus, Aggregatibacter actinomycetemcomitans (A.a), C. albicans, P. gingivalis, P. intermedia, F. nucleatum and S. mutans to provide a confluent lawn of microbial growth. Five minutes after swabbing the plates (to allow the inoculum to absorb into the agar), the test and control specimens (see below) were aseptically pipetted (5 ul) onto designated places on the plates and allowed to adsorb (or adhere, in the case of the undiluted sera) into the agar. Assays were conducted in duplicate and undiluted and 1:5 and 1:10 dilutions of the solutions and sterile saline (negative control) and chlorhexidine (CHX) were used. The plates were incubated agar-side up at 37° C. in a GasPak anaerobic jar or in 5% CO2 for 72 h. Plates were examined at 72 h for zones of inhibition of growth of the microbes. The diameter of each zone was measured in mm. The zones of inhibition of each dilution sample were compared to the zones of control saline without antimicrobial components. If the zones of the solutions were the same size (or smaller) than the inhibition zones from the control saline than there was judged no inhibition of antimicrobial activity by the antimicrobial solutions. […]

F. nucleatum [5] = assay: zone of inhibition on blood agar, drop technique and line method (Example 3); format: cell-based, Fusobacterium nucleatum; conditions: control spot, dilution not given; after 5 days of incubation
Description: as §1

[6] = tested on: Aggregatibacter actinomycetemcomitans (A.a); assay: as above; format: cell-based; conditions: control spot, dilution not given; after 5 days of incubation
Description: as §1

S. mutans [7] = assay: as above; format: cell-based, Streptococcus mutans; conditions: control spot, dilution not given; after 5 days of incubation
Description: as §1

P. intermedia [8] = assay: zone of inhibition on blood agar, drop technique and line method (Example 2); format: cell-based, Prevotella intermedia; conditions: control, 3 ul of 20%; after 3 days of incubation
Description: Experimental Design: Blood agar (for the 3 anaerobic bacteria, 1 facultative bacterium and 1 aerobic yeast; Fisher Scientific) plates were individually swabbed with fresh 24 h broth cultures of C. albicans, P. gingivalis, P. intermedia, F. nucleatum and S. mutans to provide a confluent lawn of microbial growth. Five minutes after swabbing the plates (to allow the inoculum to absorb into the agar), the test and control specimens ([…] adhere, in the case of the undiluted sera) into the agar. Assays were conducted in duplicate and undiluted and 1:5 and 1:10 dilutions of the solutions and sterile saline (negative control) were used. The plates were incubated agar-side up at 37° C. in a GasPak anaerobic jar or in 5% CO2 for 72 h. Plates were examined at 72 h for zones of inhibition of growth of the microbes. The diameter of each zone was measured in mm. The zones of inhibition of each dilution sample were compared to the zones of control saline without antimicrobial components. If the zones of the solutions were the same size (or smaller) than the inhibition zones from the control saline than there was judged no inhibition of antimicrobial activity by the antimicrobial solutions. Conversely, if the zones of the solutions were larger than the inhibition zones from the control saline than there was judged significant antimicrobial activity by the solutions. […]

P. intermedia [9] = assay: zone of inhibition on blood agar, drop technique and line method (Example 3); format: cell-based, Prevotella intermedia; conditions: control spot, dilution not given; after 5 days of incubation
Description: as §1

F. nucleatum [10] = assay: zone of inhibition on blood agar, drop technique and line method (Example 2); format: cell-based, Fusobacterium nucleatum; conditions: control, 3 ul of 20%; after 3 days of incubation
Description: as §2

C. rectus = assay: zone of inhibition on blood agar, drop technique and line method (Example 3); format: cell-based, Campylobacter rectus; conditions: control spot, dilution not given; after 5 days of incubation
Description: as §1, with “The” for “The diameter of each zone was measured in mm. The”

Structure (SMILES): [H]/N=C(\N/C(=N/[H])NCCCCCCNC(=N)NC(=N)Nc1ccc(Cl)cc1)Nc1ccc(Cl)cc1 [Chlorhexidine, chlorhexidine]
- zone of inhibition (P. gingivalis [1]): 25 mm
- circumference of zone of inhibition (C. albicans): 20 mm
- zone of inhibition (S. mutans [2]): 19 mm
- circumference of zone of inhibition (P. gingivalis [3]): 14 mm
- inhibition of growth of the seven species, in words [4]: inhibited the microbial growth of each species
- circumference of zone of inhibition (F. nucleatum [5]): 15 mm
- circumference of zone of inhibition [6]: 11 mm
- diameter of zone of inhibition (S. mutans [7]): 16 mm
- zone of inhibition (P. intermedia [8]): 24 mm
- diameter of zone of inhibition (P. intermedia [9]): 20 mm
- zone of inhibition (F. nucleatum [10]): 40 mm
- circumference of zone of inhibition (C. rectus): 16 mm
